From ChEMBL document CHEMBL1149714 (2007)
≈ marks a conversion by molar mass, not a printed value.

Legend:
Assay type in all cases: functional
Escherichia coli [1] = test: Antibacterial activity against Escherichia coli NIHJJC2 after 20 hrs by agar dilution method
Escherichia coli [2] = test: Antibacterial activity against Toho 2 (ESBL) producing Escherichia coli SR-21003 after 20 hrs by agar dilution method
Pseudomonas aeruginosa [3] = test: Antibacterial activity against Pseudomonas aeruginosa SR24 after 20 hrs by agar dilution method
Pseudomonas aeruginosa [4] = test: Antibacterial activity against AmpC hyperproducing Pseudomonas aeruginosa SR24-12 after 20 hrs by agar dilution method
Pseudomonas aeruginosa [5] = test: Antibacterial activity against Pseudomonas aeruginosa SR-5393 after 20 hrs by agar dilution method
Pseudomonas aeruginosa [6] = test: Antibacterial activity against Imipenem resistant Pseudomonas aeruginosa SR-6554 after 20 hrs by agar dilution method
Staphylococcus aureus = test: Antibacterial activity against […] Staphylococcus aureus SMITH after 20 hrs by agar dilution method
Streptococcus pneumoniae = test: Antibacterial activity against penicillin resistant Streptococcus pneumoniae SR-16675 after 20 hrs by agar dilution method
Haemophilus influenzae [7] = test: Antibacterial activity against Haemophilus influenzae ATCC 49766 after 20 hrs by agar dilution method; conditions: ATCC 49766, 20 h
Haemophilus influenzae [8] = test: Antibacterial activity against beta-lactamase negative ampicillin resistant Haemophilus influenzae SR-11435 after 20 hrs by agar dilution method
Moraxella catarrhalis = test: Antibacterial activity against Moraxella catarrhalis ATCC 43617 after 20 hrs by agar dilution method; conditions: ATCC 43617, 20 h
Enterobacter cloacae [9] = test: Antibacterial activity against Enterobacter cloacae ATCC 13047 after 20 hrs by agar dilution method; conditions: ATCC 13047, 20 h
Enterobacter cloacae [10] = test: Antibacterial activity against AmpC producing Enterobacter cloacae SR-4321 after 20 hrs by agar dilution method
Pseudomonas aeruginosa [11] = test: Antibacterial activity against CAZ susceptible Pseudomonas aeruginosa SR24 infected in mouse after 7 days; conditions: 168 h
Pseudomonas aeruginosa [12] = test: Antibacterial activity against CAZ resistant Pseudomonas aeruginosa SR24-12 infected in mouse after 7 days; conditions: 168 h

Compound	MIC (Escherichia coli [1]) [µg/mL]	MIC (Escherichia coli [2]) [µg/mL]	MIC (Pseudomonas aeruginosa [3]) [µg/mL]	MIC (Pseudomonas aeruginosa [4]) [µg/mL]	MIC (Pseudomonas aeruginosa [5]) [µg/mL]	MIC (Pseudomonas aeruginosa [6]) [µg/mL]	MIC (Staphylococcus aureus) [µg/mL]	MIC (Streptococcus pneumoniae) [µg/mL]	MIC (Haemophilus influenzae [7]) [µg/mL]	MIC (Haemophilus influenzae [8]) [µg/mL]	MIC (Moraxella catarrhalis) [µg/mL]	MIC (Enterobacter cloacae [9]) [µg/mL]	MIC (Enterobacter cloacae [10]) [µg/mL]	ED50 (Pseudomonas aeruginosa [11]) [mg/kg]	ED50 (Pseudomonas aeruginosa [12]) [mg/kg]
CO/N=C(\C(=O)N[C@@H]1C(=O)N2C(C(=O)[O-])=C(C[N+]3(C)CCCC3)CS[C@H]12)c1csc(N)n1	0.063 (≈ 0.131 µM)	4 (≈ 8.32 µM)	0.5 (≈ 1.04 µM)	32 (≈ 66.6 µM)	4 (≈ 8.32 µM)	64 (≈ 133 µM)	2 (≈ 4.16 µM)	2 (≈ 4.16 µM)	0.032 (≈ 0.0666 µM)	0.5 (≈ 1.04 µM)	0.5 (≈ 1.04 µM)				
CNCCCn1ccc2c1ccc[n+]2CC1=C(C(=O)[O-])N2C(=O)[C@@H](NC(=O)/C(=N\OCC(=O)O)c3nc(N)sc3Cl)[C@H]2SC1	0.25 (≈ 0.377 µM)	2 (≈ 3.02 µM)	0.5 (≈ 0.754 µM)	8 (≈ 12.1 µM)	2 (≈ 3.02 µM)	8 (≈ 12.1 µM)	2 (≈ 3.02 µM)	2 (≈ 3.02 µM)	0.032 (≈ 0.0483 µM)	0.125 (≈ 0.188 µM)	0.016 (≈ 0.0241 µM)	0.25 (≈ 0.377 µM)	8 (≈ 12.1 µM)		
CNCCCn1ccc2c1ccc[n+]2CC1=C(C(=O)[O-])N2C(=O)[C@@H](NC(=O)/C(=N\O[C@@H](C)C(=O)O)c3csc(N)n3)[C@H]2SC1	0.063 (≈ 0.098 µM)	1 (≈ 1.56 µM)	0.5 (≈ 0.778 µM)	32 (≈ 49.8 µM)	2 (≈ 3.11 µM)	16 (≈ 24.9 µM)	2 (≈ 3.11 µM)	8 (≈ 12.4 µM)	0.032 (≈ 0.0498 µM)	0.063 (≈ 0.098 µM)	0.125 (≈ 0.194 µM)	0.25 (≈ 0.389 µM)	16 (≈ 24.9 µM)		
CNCCCn1ccc2c1ccc[n+]2CC1=C(C(=O)[O-])N2C(=O)[C@@H](NC(=O)/C(=N\O[C@@H](C)C(=O)O)c3nc(N)sc3F)[C@H]2SC1	0.031 (≈ 0.0469 µM)	16 (≈ 24.2 µM)	1 (≈ 1.51 µM)	> 128	8 (≈ 12.1 µM)	128 (≈ 194 µM)	2 (≈ 3.03 µM)	16 (≈ 24.2 µM)	0.063 (≈ 0.0954 µM)	0.25 (≈ 0.378 µM)	0.5 (≈ 0.757 µM)	1 (≈ 1.51 µM)	> 128		
CNCCCn1ccc2c1ccc[n+]2CC1=C(C(=O)[O-])N2C(=O)[C@@H](NC(=O)/C(=N\O[C@@H](C)C(=O)O)c3nc(N)sc3Br)[C@H]2SC1	0.5 (≈ 0.693 µM)	4 (≈ 5.54 µM)	1 (≈ 1.39 µM)	4 (≈ 5.54 µM)	4 (≈ 5.54 µM)	8 (≈ 11.1 µM)	1 (≈ 1.39 µM)	4 (≈ 5.54 µM)	0.063 (≈ 0.0873 µM)	0.125 (≈ 0.173 µM)	0.016 (≈ 0.0222 µM)	1 (≈ 1.39 µM)	4 (≈ 5.54 µM)		
CNCCCn1ccc2c1ccc[n+]2CC1=C(C(=O)[O-])N2C(=O)[C@@H](NC(=O)/C(=N\O[C@H](C(=O)O)C(C)C)c3nc(N)sc3Cl)[C@H]2SC1	2 (≈ 2.84 µM)	8 (≈ 11.3 µM)	2 (≈ 2.84 µM)	8 (≈ 11.3 µM)	8 (≈ 11.3 µM)	16 (≈ 22.7 µM)	1 (≈ 1.42 µM)	4 (≈ 5.67 µM)	0.032 (≈ 0.0454 µM)	0.063 (≈ 0.0893 µM)	0.016 (≈ 0.0227 µM)	4 (≈ 5.67 µM)	8 (≈ 11.3 µM)		
CNCCCn1ccc2c1ccc[n+]2CC1=C(C(=O)[O-])N2C(=O)[C@@H](NC(=O)/C(=N\O[C@@H](CO)C(=O)O)c3nc(N)sc3Cl)[C@H]2SC1	0.25 (≈ 0.361 µM)	2 (≈ 2.89 µM)	1 (≈ 1.44 µM)	4 (≈ 5.77 µM)	4 (≈ 5.77 µM)	16 (≈ 23.1 µM)	2 (≈ 2.89 µM)	8 (≈ 11.5 µM)	0.063 (≈ 0.0909 µM)	0.125 (≈ 0.18 µM)	0.032 (≈ 0.0462 µM)	0.25 (≈ 0.361 µM)	2 (≈ 2.89 µM)		
C=C(O/N=C(\C(=O)N[C@@H]1C(=O)N2C(C(=O)[O-])=C(C[n+]3cccc4c3ccn4CCCNC)CS[C@H]12)c1nc(N)sc1Cl)C(=O)O	0.25 (≈ 0.37 µM)	1 (≈ 1.48 µM)	2 (≈ 2.96 µM)	8 (≈ 11.8 µM)	8 (≈ 11.8 µM)	32 (≈ 47.4 µM)	0.5 (≈ 0.741 µM)	2 (≈ 2.96 µM)	0.032 (≈ 0.0474 µM)	0.063 (≈ 0.0933 µM)	0.016 (≈ 0.0237 µM)	0.25 (≈ 0.37 µM)	1 (≈ 1.48 µM)		
CNCCCn1cnc2c1ccc[n+]2CC1=C(C(=O)[O-])N2C(=O)[C@@H](NC(=O)/C(=N\OC(C)(C)C(=O)O)c3csc(N)n3)[C@H]2SC1	0.5 (≈ 0.76 µM)	2 (≈ 3.04 µM)	1 (≈ 1.52 µM)	> 128	4 (≈ 6.08 µM)	128 (≈ 195 µM)						4 (≈ 6.08 µM)	128 (≈ 195 µM)		
CNCCCn1ccc2c1ccc[n+]2CC1=C(C(=O)[O-])N2C(=O)[C@@H](NC(=O)/C(=N\OC(C)(C)C(=O)O)c3nc(N)sc3Cl)[C@H]2SC1	1 (≈ 1.45 µM)	8 (≈ 11.6 µM)	2 (≈ 2.89 µM)	8 (≈ 11.6 µM)	4 (≈ 5.79 µM)	16 (≈ 23.1 µM)	2 (≈ 2.89 µM)	4 (≈ 5.79 µM)	0.032 (≈ 0.0463 µM)	0.063 (≈ 0.0911 µM)	0.008 (≈ 0.0116 µM)	2 (≈ 2.89 µM)	4 (≈ 5.79 µM)		
CNCCCn1ccc2c1ccc[n+]2CC1=C(C(=O)[O-])N2C(=O)[C@@H](NC(=O)/C(=N\O[C@H](C)C(=O)O)c3nc(N)sc3Cl)[C@H]2SC1	0.5 (≈ 0.738 µM)	4 (≈ 5.91 µM)	1 (≈ 1.48 µM)	4 (≈ 5.91 µM)	4 (≈ 5.91 µM)	16 (≈ 23.6 µM)	2 (≈ 2.95 µM)	4 (≈ 5.91 µM)	0.063 (≈ 0.093 µM)	0.25 (≈ 0.369 µM)	0.032 (≈ 0.0473 µM)	1 (≈ 1.48 µM)	4 (≈ 5.91 µM)		
CNCCCn1ccc2c1ccc[n+]2CC1=C(C(=O)[O-])N2C(=O)[C@@H](NC(=O)/C(=N\O[C@@H](C)C(=O)O)c3nc(N)sc3Cl)[C@H]2SC1	0.25 (≈ 0.369 µM)	4 (≈ 5.91 µM)	1 (≈ 1.48 µM)	4 (≈ 5.91 µM)	2 (≈ 2.95 µM)	8 (≈ 11.8 µM)	1 (≈ 1.48 µM)	2 (≈ 2.95 µM)	0.032 (≈ 0.0473 µM)	0.063 (≈ 0.093 µM)	0.016 (≈ 0.0236 µM)	0.5 (≈ 0.738 µM)	2 (≈ 2.95 µM)	1.4	5.32
CC[C@H](O/N=C(\C(=O)N[C@@H]1C(=O)N2C(C(=O)[O-])=C(C[n+]3cccc4c3ccn4CCCNC)CS[C@H]12)c1nc(N)sc1Cl)C(=O)O	1 (≈ 1.45 µM)	4 (≈ 5.79 µM)	1 (≈ 1.45 µM)	4 (≈ 5.79 µM)	4 (≈ 5.79 µM)	16 (≈ 23.1 µM)	1 (≈ 1.45 µM)	4 (≈ 5.79 µM)	0.032 (≈ 0.0463 µM)	0.063 (≈ 0.0911 µM)	0.016 (≈ 0.0231 µM)	1 (≈ 1.45 µM)	4 (≈ 5.79 µM)		
CNCCCn1ccc2c1ccc[n+]2CC1=C(C(=O)[O-])N2C(=O)[C@@H](NC(=O)/C(=N\OC(C)(C)C(=O)O)c3csc(N)n3)[C@H]2SC1	0.25 (≈ 0.381 µM)	2 (≈ 3.05 µM)	1 (≈ 1.52 µM)	32 (≈ 48.7 µM)	2 (≈ 3.05 µM)	16 (≈ 24.4 µM)						1 (≈ 1.52 µM)	16 (≈ 24.4 µM)		
CNCCCn1ccc2c1ccc[n+]2CC1=C(C(=O)[O-])N2C(=O)[C@@H](NC(=O)/C(=N\OC3(C(=O)O)CC3)c3nc(N)sc3Cl)[C@H]2SC1	0.5 (≈ 0.726 µM)	4 (≈ 5.8 µM)	1 (≈ 1.45 µM)	4 (≈ 5.8 µM)	4 (≈ 5.8 µM)	16 (≈ 23.2 µM)	1 (≈ 1.45 µM)	4 (≈ 5.8 µM)	0.016 (≈ 0.0232 µM)	0.032 (≈ 0.0464 µM)	0.008 (≈ 0.0116 µM)	0.5 (≈ 0.726 µM)	2 (≈ 2.9 µM)		
CNCCCn1ccc2c1ccc[n+]2CC1=C(C(=O)[O-])N2C(=O)[C@@H](NC(=O)/C(=N\OC3(C(=O)O)CCC3)c3nc(N)sc3Cl)[C@H]2SC1	1 (≈ 1.42 µM)	4 (≈ 5.69 µM)	1 (≈ 1.42 µM)	4 (≈ 5.69 µM)	4 (≈ 5.69 µM)	16 (≈ 22.8 µM)	1 (≈ 1.42 µM)	4 (≈ 5.69 µM)	0.032 (≈ 0.0455 µM)	0.063 (≈ 0.0896 µM)	0.016 (≈ 0.0228 µM)	2 (≈ 2.84 µM)	4 (≈ 5.69 µM)		
CNCCCn1ccc2c1ccc[n+]2CC1=C(C(=O)[O-])N2C(=O)[C@@H](NC(=O)/C(=N\O[C@@H](C)C(=O)O)c3nsc(N)n3)[C@H]2SC1	0.031 (≈ 0.0482 µM)	8 (≈ 12.4 µM)	0.5 (≈ 0.777 µM)	16 (≈ 24.9 µM)	2 (≈ 3.11 µM)	4 (≈ 6.21 µM)	2 (≈ 3.11 µM)	4 (≈ 6.21 µM)	0.031 (≈ 0.0482 µM)	0.25 (≈ 0.388 µM)	0.5 (≈ 0.777 µM)	0.25 (≈ 0.388 µM)	8 (≈ 12.4 µM)		
CNCCCn1ccc2c1ccc[n+]2CC1=C(C(=O)[O-])N2C(=O)[C@@H](NC(=O)/C(=N\O[C@@H](C)C(=O)O)c3nc(N)sc3C)[C@H]2SC1	2 (≈ 3.05 µM)	32 (≈ 48.7 µM)	1 (≈ 1.52 µM)	8 (≈ 12.2 µM)	4 (≈ 6.09 µM)	64 (≈ 97.5 µM)	4 (≈ 6.09 µM)	8 (≈ 12.2 µM)	0.125 (≈ 0.19 µM)	2 (≈ 3.05 µM)	0.5 (≈ 0.761 µM)	4 (≈ 6.09 µM)	16 (≈ 24.4 µM)		
CC(C)(O/N=C(\C(=O)N[C@@H]1C(=O)N2C(C(=O)[O-])=C(C[n+]3ccccc3)CS[C@H]12)c1csc(N)n1)C(=O)O [CEFTAZIDIME]	0.25 (≈ 0.457 µM)	1 (≈ 1.83 µM)	0.5 (≈ 0.915 µM)	64 (≈ 117 µM)	2 (≈ 3.66 µM)	32 (≈ 58.5 µM)	8 (≈ 14.6 µM)	8 (≈ 14.6 µM)	0.063 (≈ 0.115 µM)	0.125 (≈ 0.229 µM)	0.063 (≈ 0.115 µM)	8 (≈ 14.6 µM)	64 (≈ 117 µM)	2.83	127
